Experimental data taken from US5436229A, “Bisulfite adducts of arginine aldehydes” (Eli Lilly and Company, priority 1994, dated 1995).

Assays:
Type in all cases: biochemical
human thrombin = human thrombin (Homo sapiens, UniProt P00734); experiment: Thrombin amidase inhibition (Kass), chromogenic substrate
Procedure, shortened: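 Purified human thrombin (8 NIH units/ml solution) mixed with compound in 50% aqueous methanol and 0.03M Tris, 0.15M NaCl, pH 7.4; chromogenic substrate (0.25 mg/ml solution) added, p-nitroaniline release followed at 405 nm. Free thrombin read from a standard curve; Kass (L/mol) is the mean over a range of compound concentrations.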

human plasma [1] = experiment: Human plasma anticoagulation, thrombin time (TT)
Procedure, shortened: (§1)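 Compounds added across a wide concentration range to human plasma; APTT, PT and TT clotting times measured on a coagulation instrument, bovine thrombin used for plasma assays. Concentration doubling clotting time estimated by linear extrapolation.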

human plasma [2] = experiment: Human plasma anticoagulation, activated partial thromboplastin time (APTT)
Procedure, shortened: as §1

Bovine trypsin = biological target: T1, Bovine trypsin (Bos taurus, UniProt P00760); experiment: Serine protease inhibition (Kass), trypsin
T1 construct: Bovine trypsin is purchased from Worthington Biochemicals; purchased Worthington Biochemicals, Freehold, N.J
T1 sequence (P00760 24-246): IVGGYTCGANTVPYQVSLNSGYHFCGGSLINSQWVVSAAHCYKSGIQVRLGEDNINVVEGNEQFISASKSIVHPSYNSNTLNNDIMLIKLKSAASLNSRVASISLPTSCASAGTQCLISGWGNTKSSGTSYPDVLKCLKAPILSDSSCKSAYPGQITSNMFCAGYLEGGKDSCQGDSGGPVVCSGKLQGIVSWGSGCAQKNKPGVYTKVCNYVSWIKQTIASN
Procedure, shortened: (§2)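 Chromogenic p-nitroanilide substrate assays run as for human thrombin; trypsin with N-Benzoyl-Phe-Val-Arg-p-nitroanilide, human factor Xa with N-Benzoyl-Ile-Glu-Gly-Arg-p-nitroanilide. Values are association constants (Kass).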

Human plasmin = biological target: T2, Human plasmin (Homo sapiens, UniProt P00747); experiment: Serine protease inhibition (Kass), plasmin
T2 construct: Human plasmin is purchased from Boehringer Mannheim; purchased Boehringer Mannheim, Indianapolis, Ind
T2 sequence (P00747 581-810 limits assumed): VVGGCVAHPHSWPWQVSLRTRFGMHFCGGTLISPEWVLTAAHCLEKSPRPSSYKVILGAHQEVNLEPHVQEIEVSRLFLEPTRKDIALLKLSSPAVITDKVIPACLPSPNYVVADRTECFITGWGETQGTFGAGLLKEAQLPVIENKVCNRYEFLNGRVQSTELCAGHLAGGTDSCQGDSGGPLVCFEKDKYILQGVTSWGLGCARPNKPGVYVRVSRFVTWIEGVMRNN
T2 sequence (P00747 97-580 partner limits assumed): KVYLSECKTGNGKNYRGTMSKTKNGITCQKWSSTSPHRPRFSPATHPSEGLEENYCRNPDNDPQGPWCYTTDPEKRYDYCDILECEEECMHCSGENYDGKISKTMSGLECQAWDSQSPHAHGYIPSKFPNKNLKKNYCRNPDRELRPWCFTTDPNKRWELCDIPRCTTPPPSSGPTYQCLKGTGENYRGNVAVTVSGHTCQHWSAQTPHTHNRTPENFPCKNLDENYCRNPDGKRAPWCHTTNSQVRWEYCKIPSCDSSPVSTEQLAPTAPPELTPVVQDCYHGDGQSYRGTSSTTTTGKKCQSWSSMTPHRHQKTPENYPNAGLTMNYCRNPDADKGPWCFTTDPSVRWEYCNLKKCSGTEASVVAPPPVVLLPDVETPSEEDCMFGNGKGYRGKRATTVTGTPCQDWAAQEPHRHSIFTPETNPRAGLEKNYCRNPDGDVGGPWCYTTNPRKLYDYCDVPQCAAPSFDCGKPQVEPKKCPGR
Procedure, shortened: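 Chromogenic enzyme assays run as for human thrombin, giving association constants (Kass). Human plasmin used with H-D-Val-Leu-Lys-p-nitroanilide; t-PA (single-chain nt-PA or modified mt-PA6) with H-D-Ile-Pro-Arg-p-nitroanilide.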

[3] = biological target: T3, tissue plasminogen activator (t-PA) (Homo sapiens, UniProt P00750); experiment: Serine protease inhibition (Kass), t-PA
T3 construct: purchased American Diagnostica, Greenwich, Conn
T3 sequence (P00750 36-562): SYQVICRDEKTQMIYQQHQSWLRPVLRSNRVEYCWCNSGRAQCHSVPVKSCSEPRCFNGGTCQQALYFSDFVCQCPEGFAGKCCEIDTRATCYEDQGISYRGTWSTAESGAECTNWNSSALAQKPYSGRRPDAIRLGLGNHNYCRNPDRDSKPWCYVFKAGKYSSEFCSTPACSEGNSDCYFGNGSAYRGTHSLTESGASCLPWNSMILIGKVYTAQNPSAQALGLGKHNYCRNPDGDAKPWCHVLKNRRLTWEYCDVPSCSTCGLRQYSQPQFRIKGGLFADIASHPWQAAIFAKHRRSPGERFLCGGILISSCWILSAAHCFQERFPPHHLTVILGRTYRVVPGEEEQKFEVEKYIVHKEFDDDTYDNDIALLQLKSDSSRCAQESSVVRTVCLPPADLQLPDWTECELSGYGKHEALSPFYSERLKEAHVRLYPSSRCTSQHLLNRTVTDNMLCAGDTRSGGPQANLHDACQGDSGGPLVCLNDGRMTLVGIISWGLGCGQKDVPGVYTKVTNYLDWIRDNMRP

human plasma [4] = experiment: Human plasma anticoagulation, prothrombin time (PT)
Procedure, shortened: as §1

factor Xa = biological target: T4, factor Xa (Homo sapiens, UniProt P00742); experiment: Serine protease inhibition (Kass), factor Xa
T4 construct: Human factors X, Xa, IXa, XIa, and XIIa are purchased from Enzyme Research Laboratories; purchased Enzyme Research Laboratories, South Bend, Ind
T4 sequence (P00742 235-488 limits assumed): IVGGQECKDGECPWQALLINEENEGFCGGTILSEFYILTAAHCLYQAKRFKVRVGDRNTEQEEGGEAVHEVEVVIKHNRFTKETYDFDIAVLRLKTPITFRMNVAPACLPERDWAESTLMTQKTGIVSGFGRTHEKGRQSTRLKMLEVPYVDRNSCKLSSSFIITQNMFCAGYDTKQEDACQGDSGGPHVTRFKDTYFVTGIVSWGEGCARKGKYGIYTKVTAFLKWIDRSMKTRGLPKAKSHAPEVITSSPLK
T4 sequence (P00742 41-179 partner limits assumed): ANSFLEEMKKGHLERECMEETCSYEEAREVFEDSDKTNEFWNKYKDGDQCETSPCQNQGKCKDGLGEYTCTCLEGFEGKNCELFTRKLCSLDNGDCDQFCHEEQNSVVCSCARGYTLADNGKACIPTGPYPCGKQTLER
Procedure, shortened: as §2

| SMILES | Kass Human Thrombin (human thrombin) [L/mol × 10^6] | 2 × Clotting time TT (human plasma [1]) [ng/mL] | 2 × Clotting time APTT (human plasma [2]) | Kass Trypsin (Bovine trypsin) [L/mol × 10^6] | Kass Plasmin (Human plasmin) [L/mol × 10^6] | Kass t-PA [3] [L/mol × 10^6] | 2 × Clotting time PT (human plasma [4]) | Kass Xa (factor Xa) [L/mol × 10^6] |
| --- | --- | --- | --- | --- | --- | --- | --- | --- |
| C[C@@]1(C(=O)N[C@H](C=O)CCCNC(=N)N)CCCN1C(=O)[C@H](Cc1ccccc1)NS(C)(=O)=O.Cl [Example 44, N-methylsulfonylphenylalanyl(αmethyl)-L-prolinyl-L-arginine aldehyde hydrochloride] | 2.1 | 560 | 12,000 ng/mL | 1.4 | 0.031 | 0.0023 | 11,000 ng/mL | 0.033 |
| Cl.N=C(N)NCCC[C@@H](C=O)NC(=O)[C@@H]1CCCN1C(=O)[C@@H](Cc1ccccc1)NC(=O)Cc1cccnc1 [Example 48, N-(3-pyridylacetyl)-D-phenylalanyl-L-Prolinyl-L-Arginine Aldehyde Hydrochloride] | 13 | 150 | 2,300 ng/mL | 5.2 | 0.27 | 0.22 | 3,400 ng/mL | 0.067 |
| Cl.Cn1c(C(=O)N[C@H](CC2CCCCC2)C(=O)N2CCC[C@H]2C(=O)N[C@H](C=O)CCCNC(=N)N)cc2ccccc21 [Example 49, N-(1-methylindolyl-2-carbonyl)-D-cyclohexylalanyl-L-Prolinyl-L-Arginine Aldehyde Hydrochlonde] | 320 | 110 | 1,000 ng/mL | 7.9 | 25 | 1.1 | 2,500 ng/mL | 4.6 |
| Cl.N=C(N)NCCC[C@@H](C=O)NC(=O)[C@@H]1CCCN1C(=O)[C@@H](CC1CCCCC1)NC(=O)c1cc2ccccc2cn1 [Example 50, N-(isoquinolinyl-2-carbonyl)-D-cyclohexylalanyl-L-Prolinyl-L-Arginine Aldehyde Hydrochloride] | 200 | 97 | 1,400 ng/mL | 2.5 | 2.5 | 0.088 | 2,700 ng/mL | 0.83 |
| COc1ccc(OC)c(S(=O)(=O)N[C@H](Cc2ccccc2)C(=O)N2CCC[C@H]2C(=O)N[C@H](C=O)CCCNC(=N)N)c1.Cl [Example 59, N-(2,5-dimethoxyphenylsulfonyl)-D-phenylalanyl-L-Prolinyl-L-Arginine Aldehyde Hydrochloride] | 200 | 92 | 550 ng/mL | 150 | 9.5 | 1.5 | 2,000 ng/mL | 8.8 |
| Cc1noc(C)c1S(=O)(=O)N[C@H](Cc1ccccc1)C(=O)N1CCC[C@H]1C(=O)N[C@H](C=O)CCCNC(=N)N.Cl [Example 60, N-(3,5-dimethyl-4-isoxazolylsulfonyl)-D-phenylalanyl-L-Prolinyl-L-Arginine Aldehyde Hydrochloride] | 260 | 33 | 430 ng/mL | 200 | 18 | 2.7 | 1,300 ng/mL | 11 |
| Cl.N=C(N)NCCC[C@@H](C=O)NC(=O)[C@@H]1CCCN1C(=O)[C@@H](Cc1ccccc1)NS(=O)(=O)c1nccs1 [Example 63, N-(2-thiazolylsulfonyl)-D-phenylalanyl-L-Prolinyl-L-Arginine Aldehyde Hydrochloride] | 68 | 66 | 810 ng/mL | 52 | 3.4 | 0.31 | 2,900 ng/mL | 2.8 |
| CCS(=O)(=O)N[C@@H](C(=O)N1CCC[C@H]1C(=O)N[C@H](C=O)CCCNC(=N)N)c1ccccc1.Cl [Example 64, N-(ethylsulfonyl)-D-phenylglycinyl-L-Prolinyl-L-Arginine Aldehyde Hydrochloride] | 510 | 34 | 250 ng/mL | 160 | 14 | 0.34 | 880 ng/mL | 45 |
| CCS(=O)(=O)N[C@@H](C(=O)N1CCC[C@H]1C(=O)N[C@H](C=O)CCCNC(=N)N)C1CCCCC1.Cl [Example 66, N-(ethylsulfonyl)-D-cyclohexylglycinyl-L-Prolinyl-L-Arginine Aldehyde Hydrochloride] | 260 | 46 | 330 ng/mL | 260 | 13 | 0.11 | 1,100 ng/mL | 24 |
| CC(=O)N[C@H](Cc1ccccc1)C(=O)N1CCC[C@H]1C(=O)N[C@H](C=O)CCCNC(=N)N.Cl [Example 67, N-(acetyl)-D-phenylalanyl-L-Prolinyl-L-Arginine Aldehyde Hydrochloride] | 3.4 | 140 | 2,700 ng/mL | 14 | 0.28 | 0.11 | 4,100 ng/mL | 0.066 |
| COCC(=O)N[C@H](Cc1ccccc1)C(=O)N1CCC[C@H]1C(=O)N[C@H](C=O)CCCNC(=N)N.Cl [Example 68, N-(methoxyacetyl)-D-phenylalanyl-L-Prolinyl-L-Arginine Aldehyde Hydrochloride] | 33 | 38 | 440 ng/mL | 57 | 3.8 | 0.30 | 1,200 ng/mL | 0.29 |
| Cl.N=C(N)NCCC[C@@H](C=O)NC(=O)[C@@H]1CCCN1C(=O)[C@@H](Cc1ccccc1)NC(=O)C(F)(F)F [Example 69, N-(trifluoroacetyl)-D-phenylalanyl-L-Prolinyl-L-Arginine Aldehyde Hydrochloride] | 26 | 59 | 1,300 ng/mL | 15 | 0.31 | 0.17 | 1,800 ng/mL | 0.033 |
